Laboratory results as given in patent publication US20200172913A1, “PEPTIDES AND NANOPARTICLES FOR INTRACELLULAR DELIVERY OF VIRUS” (priority 2017, published 2020).
Where no end group is shown, it is not given here. PEG = not defined here; βAla = NCCC(=O)O

Key:
293 T cells = experiment: AAV-2/PEP-1 peptide particle stability (serum, heparin), GFP expressing cells by flow cytometry; type: cell-based; settings: for effect of the modification on AAV/PEP-1 complex stability in serum: high concentration of serum; for reduction of the level of GFP expressing cells (efficacy): particles incubated 1 hour in 50% serum, 50 μM peptide, AAV-2 MOI of 300; for increase of efficacy: standard conditions (no serum, no heparin), vs unmodified PEP-1
Description: Stock solutions of peptides were prepared at 2 mg/mL in distilled water or 5% DMSO and sonicated for 10 min in a water bath sonicator then diluted just before use. AAV-2 encoding green fluorescent protein at MOI of 300 was pre-incubated in low salt medium with PEP-1 peptides containing either a specific targeting motif, a PEG or Dopamine moiety at a concentration of 50 μM for 30 min. The AAV-2/peptide particle stability was evaluated in different conditions. Particles were incubated for 1 hour in DMEM medium containing 10, 20 to 50% serum (FSC) or in the presence of heparin (5 and 10 μg). Then AAV alone or PEP-1/AAV complexes were added to cultured 293 T cells in a 24 well plate format. Cells were treated with either free AAV-2 or Peptide/AAV-2 complexes for 4 h, and then the medium was replaced with fresh medium. Viral mediated transgene expression was monitored 2 days post-infection. GFP expressing cells were detected by flow cytometry.

HepG2 cells = experiment: AAV-6-GFP transduction with CPPs, flow cytometry; type: cell-based, human; settings: 200 μM CPP, MOI of 500, HepG2
Description: (§1) In this example different AAV serotypes including AAV 1, AAV2, AAV5, AAV6, AAV8 and AAV9 were tested against human hepatocytes (HepG2) and human neuronal cells (HCN2) in the presence or in the absence of CPPs including ADGN-103a, ADGN-103b, ADGN-100, ADGN-109, ADGN-106, PEP-1, PEP-2, CADY, and TAT-HA2.
(§2) AAV-1, AAV-2, AAV-5, and AAV-6 viruses encoding green fluorescent protein were obtained from Cell Biolabs Inc and AAV-8 from Vector Biolabs. Stock solutions of virus were obtained at 1χ10^13 GC/ml in PBS/0.01% and diluted 50-fold to 2×10^11 GC/ml before use.
(§3) AAV-1, AAV-2, AAV-5, and AAV6 encoding green fluorescent protein were used at low MOI of 500 (1-2×10^7 PFU) and AAV-8 at MOI of 1000 (2-4×10^7 PFU). HepG2 and HCN2 cells (1 10^6 cells per well) were cultured in a 24 well plate culture dish format. For MOI of 1000, 5 μl of AAV virus diluted solutions were preincubated in PBS with increasing concentration of CPPs ranging from 0.1 to 200 μM for 30 min. For MOI of 500, 2.5 μl of AAV virus diluted solutions were preincubated in PBS with increasing concentration of CPPs ranging from 0.1 to 200 μM for 30 min. 200 μl of AAV or CPP/AAV complex solutions were added to cultured cells (1×10^6 cells per well). Cells are treated with either free AAV or CPP/AAV complexes for 4 h. and then the medium is replaced with fresh medium.
(§4) Viral mediated transgene expression was monitored by flow cytomety 2 days post-infection in HepG2 and Human neuronal HCN2. The percentage of GFP expressing cells were detected by flow cytometry and the increase of AAV infectivity was calculated based on the number of GFP-positive cells. Results are reported in FIGS. 5A-5D, 6A-6D, 7A-7D, 8A-8D, and 9A-9D.

HCN2 cells [1] = experiment: AAV-6-GFP transduction with CPPs, flow cytometry; type: cell-based, human; settings: 200 μM CPP, MOI of 500, HCN2
Description: as §1, §2, §3, §4

HCN2 cells [2] = experiment: AAV-2-GFP transduction with CPPs, flow cytometry; type: cell-based, human; settings: 200 μM CPP, MOI of 500, HCN2
Description: as §1, §2, §3, §4

HCN2 cells [3] = experiment: AAV-5-GFP transduction with CPPs, flow cytometry; type: cell-based, human; settings: 200 μM CPP, MOI of 500, HCN2
Description: as §1, §2, §3, §4

HCN2 cells [4] = experiment: AAV-1-GFP transduction with CPPs, flow cytometry; type: cell-based, human; settings: 200 μM CPP, MOI of 500, HCN2
Description: as §1, §2, §3, §4

| Substance | effect of the modification on AAV/PEP-1 complex stability in serum (293 T cells) | reduction of the level of GFP expressing cells (efficacy) (293 T cells) | increase of AAV-6 efficiency (HepG2 cells) | increase of AAV-6 efficiency (HCN2 cells [1]) | increase of AAV-2 efficiency (HCN2 cells [2]) | increase of AAV-5 efficiency (HCN2 cells [3]) | increase of AAV-1 efficiency (HCN2 cells [4]) | increase of efficacy (293 T cells) |
| --- | --- | --- | --- | --- | --- | --- | --- | --- |
| GYVSK-GGGGSKETWWETWWTEWSQPKKKRKV (Ac-GYVSKGGGGSKETWWETWWTEWSQPKKKRKV-cysteamide) [PEP-1 T1] | significantly protected | 27% | – | – | – | – | – | – |
| βALWRALWRLWRSLWRLLWKA (not fully specified (residue 1, N-terminus); printed as βALWRALWRLWRSLWRLLWKA) [ADGN-106] | – | – | about 10 fold | 7 fold | 7 fold | 4 fold | 7 fold | – |
| DOPA-GGGG-KETWWETWWTEWSQPKKKRKV (GGGGKETWWETWWTEWSQPKKKRKV; not fully specified (N-terminus)) [PEP-1-DOPA, Dopamine added to the N-terminus of PEP-1 using a Gly4 linker] | stabilized | 30% | – | – | – | – | – | 40% |
| KETWWETWWTEWSQPKKKRKVGGGG-GYVSK (Ac-KETWWETWWTEWSQPKKKRKVGGGGGYVSK-cysteamide) [PEP-1 T2] | only a moderate effect | – | – | – | – | – | – | – |
| PEG-βAKETWWETWWTEWSQPKKKRKV ({PEG-βAla}-KETWWETWWTEWSQPKKKRKV; reading uncertain) [PEP-1-PEG, PEP-1 mono-PEGylated with 5 kDa PEG at the N-terminal beta Alanine] | stabilized | 30% | – | – | – | – | – | 40% |
